Assay results from US6083915A, “Method for treating liver cancer” (Biomeasure, Inc., priority 1991, dated 2000).

System: M5123 hepatoma
Type: in vivo
Settings: for % Test/Control / Tumor Weight (mg) Day 18: 100 μg/inj., s.c., b.i.d., q.d. 1-20; for % Test/Control: day 18; for Tumor Weight (mg) Day 18: mean ± s.e.m.
Description: The M5123 hepatoma cells, obtained from Dr. H. P. Morris at the National Cancer Institute, were induced in the Buffalo strain of rats by ingestion of N-(2-fluorenyl-phthalamic acid) and established in serial transplantation. Implantation of the M5123 hepatoma cells in an immunodeficient athymic mouse reproducibly results in progressively growing, lethal tumor.
In contrast to the subrenal capsule assay, in the subcutaneous assay, tumor xenografts are implanted subcutaneously, rather than under the subrenal capsule, and treatment can be initiated at any selected time after the implantation.
In this assay, tumors were implanted subcutaneously in the right flank of athymic female mice and test compounds, BIM-26159, BIM-26187, BIM-26189, BIM-26218, BIM-26223 and BIN-26228, and control were injected subcutaneously in the left flank. For the structures of BIM-26159, BIM-26187, BIM-26189, see "Summary of the Invention" above. The structures of BIM-26223 and BIM-26228 are as follows:
Response of an implanted tumor to the treatment was monitored as follows. The length and width of the tumor were first measured using sensitive Vernier calipers. Tumor weight was then calculated based on the measurements as follows: [length (mm)×width (mm)^2 ]/2 mg. In addition to tumor size or weight, this assay system permits the parameter of "lag time", i.e., the effect of early treatment on the growth potential of tumors to reach a certain size.
In one experiment, thirty two mice were implanted subcutaneously with M5123 hepatoma xenografts on day 0 and randomized into four groups of eight animals per group. The bombesin analog BIM-26159 was administered at 250, 50, 10 μg per injection, S.C., b.i.d.,q.d. 1-18.
In another experiment, we tested the activity of five bombesin analogs, i.e., BIM-26187, BIM-26189, BIM-26218, BIM-26223 and BIM-26228, over a period of 18 days. Forty mice were implanted s.c. with M5123 hepatoma xenografts on day 0, and the randomized into ten animals in the control group and six animals per test group. All compounds were administered at 100 μg per injection, s.c., b.i.d., q.d. 1-18.

| Compound | % Test/Control | Tumor Weight (mg) Day 18 | effect on growth of the tumor cells (in words) (100 μg per injection, over 18 days) |
| --- | --- | --- | --- |
| CC(C)C[C@H](NC(=O)[C@H](CC(C)C)NC(=O)[C@H](Cc1c[nH]cn1)NC(=O)CNC(=O)[C@@H](NC(=O)[C@H](C)NC(=O)[C@H](Cc1c[nH]c2ccccc12)NC(=O)[C@H](CCC(N)=O)NC(=O)[C@H](N)Cc1ccccc1)C(C)C)C(N)=O [BIM-26187, D-Phe-Gln-Trp-Ala-Val-Gly-His-Leu-Leu-NH2] | 83% | 482.8 ± 175.0 mg |  |
| D-Phe-Gln-Trp-Ala-Val-Gly-CHxAla-Leu-NH2 [BIM-26228] | 115% | 667.2 ± 181.6 mg | slightly stimulated growth |
